In patent publication US20230233515A1, “PHOTODYNAMIC ANTI-GRAM-POSITIVE BACTERIAL ACTIVITY OF PHARMACEUTICAL-GRADE ROSE BENGAL” (priority 2021, published 2023):
Converted amounts (≈) assume the structure as drawn. “And” between values parts separate entries of the source, which are not always exact repeats. Equal entries are not always repeated. Where two headings read alike, the source gives them in different places.

Tests used:
[1] = system: M.smegmatis 607™ (wild-type); test: MIC against M.smegmatis, dark; format: cell-based, Mycobacterium smegmatis; conditions: dark condition, triplicate
[2] = system: M.smegmatis 607™ (RB mutant); format: cell-based, Mycobacterium smegmatis; conditions: for MIC (µg/mL) against M.smegmatis 607™ (RB mutant): triplicate
[3] = system: Burkholderia, Salmonella, and Proteus spp.; test: MIC, broth dilution; conditions: fluorescent or LED lights
Procedure: (§6) We have reinvestigated the bactericidal activity of pharmaceutical-grade of RB against a battery of Gram-positive and -negative aerobic bacteria including Mycobacterium spp. and a Saccharomyces sp. under different light sources (fluorescence, LED, and sun light) and in a dark condition. Fluorescent light used was 17W (1,647 lumens, 63.8 cm^2) and LED was a 9.5 W (800 lumens, 28.3 cm^2), specifics about which are discussed hereinafter.
(§7) Minimum inhibitory concentrations (MICs) were determined by broth dilution microplate alamar blue assay or by OD measurement. All compounds were stored in DMSO or saline (1 mg/100 µL concentration). This concentration was used as the stock solution for all MIC studies. Each compound from stock solution was placed in the first well of a sterile 96 well plate and a serial dilution was conducted with the culturing broth (total volume of 10 µL). The bacterial suspension at log phase (190 µL) was added to each well (total volume of 200 µL), and was incubated for 24 h at 37° C.

[4] = Behaviour in water at stomach pH; format: physicochemical; conditions: water solution having the acidic pH value of the human stomach
Description: For example, the highly acidic gastric environment (pH 1.5-2 in the fasted state; pH 3-6 in the fed state) rises rapidly to about pH 6 in the duodenum and increases along the small intestine to pH 7.4 at the terminal ileum. The pH value in the cecum drops just below pH 6 and again rises in the colon reaching pH 6.7 at the rectum [Hua, Front Pharmacol 11: Article 524 (April 2020)].

Bacteroides fragilis = test: MIC, broth dilution; conditions: anaerobic Gram-negative bacterium
Description: We have reinvestigated the bactericidal activity of pharmaceutical-grade of RB against a battery of Gram-positive and -negative aerobic bacteria including Mycobacterium spp. and a Saccharomyces sp. under different light sources (fluorescence, LED, and sun light) and in a dark condition. Fluorescent light used was 17W (1,647 lumens, 63.8 cm^2) and LED was a 9.5 W (800 lumens, 28.3 cm^2), specifics about which are discussed hereinafter. In the studies under sunlight through an architectural window, the 96-well plates were placed on the east side of the building (the BSL-2 lab on the 5th floor, College of Pharmacy, University of Tennessee Health Science Center, Memphis, TN, USA) and the growth inhibition studies were performed between 8 AM and 5 PM (on June 18th, 2021).
Minimum inhibitory concentrations (MICs) were determined by broth dilution microplate alamar blue assay or by OD measurement. All compounds were stored in DMSO or saline (1 mg/100 µL concentration). This concentration was used as the stock solution for all MIC studies. Each compound from stock solution was placed in the first well of a sterile 96 well plate and a serial dilution was conducted with the culturing broth (total volume of 10 µL). […] The absorbance of each well was also measured at 570 and 600 nm via UV-Vis.

[5] = system: air-exposed biofilms of S.aureus BAA-44™; test: Air-exposed biofilms on agar plate; format: cell-based, Staphylococcus aureus; conditions: for CFU/mL (Dilution 5.8 × 10^11): treated at 0 and 30 min, 1 h, 17W fluorescent light, counted after 24 h at 37° C.
Procedure: The data of Table 3, below, summarize the effect of RB on air-exposed biofilms of a MRSA, Saureus BAA-44™, under fluorescent light (17 W, 1 h, 0.57 KJ/cm^2). Spraying RB (5.0 µg/mL or 10 µg/mL solution, 250 µL (twice)) and fluorescent light exposure (for 1 h) eradicated significant viable bacteria in the biofilms with a 4-log reduction (determined at a dilution of 5.8×10^9).
The bacteria (about 1.0x10^4) were spread on an agar plate and incubated in an oven at 37° C. for 2 days. The air-exposed biofilms on an agar plate were treated with PV-10. After 1 h under fluorescent light (0.57 KJ/cm^2), saline (2 mL) was added to the agar surface. The bacterial suspension ([…]) was taken into a sterile tube, and serial dilutions were performed. The diluted sample ([…]) was spread on agar plates and incubated at 37° C. for 24 h CFU/mL were counted.

S.aureus BAA-44 = test: Time-kill kinetic assay; conditions: twice the RB MIC; fluorescent light
Procedure: (§8) Thus, the time-course experiments on these bacteria were conducted under the fluorescent light for 2 h (0-1,130 J/cm^2) at concentrations of about 2 to about 8-fold the MIC (RB). Reference molecules used were linezolid (10 µg/mL) and ciprofloxacin (10 µg/mL) for the Gram-positive bacteria and amikacin (10 µg/mL) and meropenem (10 µg/mL) for the Gram-negative bacterium.
(§9) Time-kill kinetics assay for antimicrobial agents was performed using CLSI guidelines with a minor modification. The multiple time points in time-kill kinetics assays for RB and the reference molecules were performed. The bacterial culture grown in the broth was diluted to a concentration between 1 × 10^8 and 5.0 × 10^9 CFU/mL.
(§10) A stock dilution of the antimicrobial test substance was prepared at approximately 2- to about 8-fold the MIC values. The test compounds were inoculated with equal volumes of the specified bacteria placed in a 96-well plate. The microtiter plates were incubated at 37° C. and duration (1-120 min) under the fluorescent light (conditions are summarized in the figure legend). An aliquot of the culture medium was taken from each well and a serial dilution was performed. The diluted culture was incubated at 37° C. and CFU/mL were counted.

[6] = system: Staphylococcus epidermidis; test: MIC, broth dilution; conditions: aerobic condition; entry 16
Procedure: as §6, §7

[7] = system: B.subtilis, B.cereus, and S.aureus; test: MIC, agar dilution; format: cell-based; conditions: fluorescent light; entries 1-4 in Table 2; read-out: MIC (growth inhibition), agar dilution
Description: (§1) All studies were done in triplicate. […] MBC: minimum bactericidal concentrations (µg/mL).
We observed that under the illumination conditions the MIC values of RB determined by the agar dilution method are lower than those determined by the broth dilution method (Table 1).

[8] = system: biofilms of S.aureus 6508; test: Anti-biofilm assay; format: cell-based, Staphylococcus aureus; conditions: for viable bacteria in biofilm: dark condition
Procedure: We applied linezolid as a positive control at very high concentration of 600 µg/mL (>100xMIC for the planktonic cells) in our biofilm assays.
The biofilms were generated on 12-well plates by incubating each bacterium for five days. The planktonic bacteria in the culture media were gently removed, and fresh media were placed. […] An aliquot of each culture was diluted (x10,000 or x100,000) on agar plates at 37° C. for 24 h. CFU/mL was counted.

Vero cells = test: Cytotoxicity with Vero cells under fluorescent light (confluence); conditions: fluorescent light; for confluence lost: 200 µM
Procedure: (§2) FIG. 5 is a graph showing the time in hours (h) for cell confluence at four concentrations of HB-RBf (zero µM, 100 µM, 200 µM and 300 µM) when irradiated under fluorescent light;
(§3) Cytotoxicity assays for RB in Vero cells were performed in a 24-well plate.
(§4) Images were collected by AMG EVOS xl transmitted light imaging microscope. […] (5% CO2).

[9] = as above; conditions: African green monkey, selectivity index (SI), cytotoxicity versus antibacterial activity, 1 h treatment time
Procedure: as §2, §3, §4

a S.aureus strain = conditions: 19.5 µg/mL RB, 10 min visible light, light fluence dose 30 J/cm^2; cited from earlier work
[10] = system: biofilms of S.aureus 71080 (VRS8); test: Anti-biofilm assay; format: cell-based, Staphylococcus aureus; conditions: fluorescent light
Procedure: Here, we examined efficacy of RB against biofilms of a drug-susceptible S.aureus 6508™, and drug-resistant S.aureus 71080 (VRS8) and E.faecium NR-32065 under the florescent light and dark conditions.
The biofilms were generated on 12-well plates by incubating each bacterium for five days. The planktonic bacteria in the culture media were gently removed, and fresh media were placed. […] An aliquot of each culture was diluted (x10,000 or x100,000) on agar plates at 37° C. for 24 h. CFU/mL was counted [47, 69].

Gram-negative bacteria = test: MIC, broth dilution; format: cell-based; conditions: dark condition; all Gram-negative bacteria of Table 1, entries 31-47
Description: (§5) All studies were done in triplicate. […] “g” = MIC was not determined.

Mycobacterium spp. = test: MIC, broth dilution; format: cell-based
Description: as §5

Enterococcus faecalis = test: MIC, broth dilution; format: cell-based; conditions: drug-susceptible and drug-resistant incl. vancomycin-resistant strains; entries 17-21
Description: as §5

[11] = system: Gram-positive Bacillus spp.; test: MIC, broth dilution; format: cell-based; conditions: illumination; entries 1-3 of Table 1
Description: as §5

Staphylococcus aureus = test: MIC, broth dilution; format: cell-based
Description: as §5

Gram-positive bacteria = test: MIC, broth dilution; format: cell-based
Description: as §5

Streptococcus pneumoniae = test: MIC, broth dilution; conditions: entry 24
Procedure: as §6, §7

S.cerevisiae [12] = test: Growth inhibition of yeast; format: cell-based; conditions: Saccharomyces cerevisiae; fluorescent light; read-out: concentration giving 50% growth inhibition
Description: as §5, §1

S.cerevisiae [13] = test: Minimal bactericidal concentration (MBC) assay
[14] = system: Gram-positive and -negative bacteria; test: Time-kill kinetics, general statements
Procedure: as §9
A stock dilution of the antimicrobial test substance was prepared at approximately 2- to about 8-fold the MIC values. The test compounds were inoculated with equal volumes of the specified bacteria placed in a 96-well plate. The microtiter plates were incubated at 37° C. and duration (1-120 min) under the fluorescent light (conditions are summarized in the figure legend). An aliquot of the culture medium was taken from each well and a serial dilution was performed. The diluted culture was incubated at 37° C. and CFU/mL were counted. Bactericidal activity was defined as greater than 3 log-fold decrease in colony forming units [64].

[15] = system: three E.coli, two Pseudomonas aeruginosa, two Klebsiella pneumoniae, and two Acinetobacter baumannii strains; test: MIC, broth dilution; conditions: entries 31-39
Procedure: as §6, §7

S.aureus 6538™ = test: Time-kill kinetic assay; conditions: in 1 minute; 4.6 × 10^8 CFU; fluorescent light
Procedure: as §8, §9, §10

[16] = at the therapeutic concentrations; cited from earlier work
S.aureus 71080 (VRS8) = test: Time-kill kinetic assay; conditions: twice the RB MIC; fluorescent light
Procedure: as §8, §9, §10

Streptococcus salivarius = test: MIC, broth dilution; conditions: entry 23
Procedure: as §6, §7

E.faecium NR-32065 = test: Time-kill kinetic assay; conditions: twice the RB MIC; fluorescent light
Procedure: as §8, §9, §10

B.cepacia UCB717 = test: Time-kill kinetic assay; conditions: fluorescent light
Procedure: as §8, §9, §10

[17] = system: human epidermal keratinocytes (HEKa); test: Cytotoxicity assay with HEKa cells (stratified epithelium, H&E); conditions: fluorescent light
Procedure: In these studies, HEKa cells were differentiated to a stratified squamous epithelium via air-liquid interface; this type of epithelium can be applied as a physiological tissue to study epidermal necrolysis by the treatment of RB.
Cytotoxicity of PV-10 against Human Epidermal Keratinocytes (HEKa) were evaluated in a hanging cell culture insert in a 24-well plate. HEKa (4x10^5 cells/mL, 0.5 mL) cell suspension) was placed into the insert where the outside of the inserts was filled with EpiGRO™ Complete Culture Media (1.5 mL) [67]. The cell suspension was incubated at 37° C. overnight (about 18 hours).
The next day, without removing the original medium, an additional 0.5 mL of the medium was added to the inside of each insert and incubated at 37° C. for 2 days. High quality HEKa approached 100% confluence by the third day of submerged culture. On the 4th day, the media was gently aspirated from each insert. The skin cell cultures were maintained at the air/liquid interface.
The skin culture was incubated at 37° C. for an additional 10 days. During the 10-day incubation, the media was changed every other day and any bubbles were removed from beneath the insert membrane.
After 25 days of 3D skin culture, approximately 6 to 8 layers of live epithelium were produced. […]

Compound: NC[C@H]1O[C@@H](O[C@H]([C@H]2O[C@@H](n3ccc(=O)[nH]c3=O)[C@H](O)[C@@H]2O)[C@H](NCCCC(=O)NCc2ccc(N3CCC(Oc4ccc(OC(F)(F)F)cc4)CC3)cc2)C(N)=O)[C@H](O)[C@@H]1O [APPB, aminouridyl phenoxypiperidinylbenzyl butanamide]
- MIC (µg/mL) against M.smegmatis 607™ (wild-type) [1]: 0.20 µg/mL (≈ 0.227 µM)
- susceptibility of the RB-resistant strain to the drug ([2]; dark condition): susceptible
- MIC (µg/mL) against M.smegmatis 607™ (RB mutant) ([2]; dark condition): 0.20 µg/mL (≈ 0.227 µM)

Compound: NCC[C@H](O)C(=O)N[C@@H]1C[C@H](N)[C@@H](O[C@H]2O[C@H](CN)[C@@H](O)[C@H](O)[C@H]2O)[C@H](O)[C@H]1O[C@H]1O[C@H](CO)[C@@H](O)[C@H](N)[C@H]1O [Amikacin, amikacin]
- MIC ([1]; Mycolicibacterium smegmatis): 0.78 µg/mL (≈ 1.33 µM)
- susceptibility of the RB-resistant strain to the drug ([2]; dark condition): susceptible

Compound: CCc1cc(C(N)=S)ccn1 [Ethionamide, ethionamide]
- susceptibility of the RB-resistant strain to the drug [2]: susceptible

Compound: NNC(=O)c1ccncc1 [Isoniazid, isoniazid]
- susceptibility of the RB-resistant strain to the drug ([2]; dark condition): cross-resistance

Compound: O=C([O-])c1c(Cl)c(Cl)c(Cl)c(Cl)c1-c1c2cc(I)c(=O)c(I)c-2oc2c(I)c([O-])c(I)cc12.[Na+].[Na+] [RB, 4,5,6,7-tetrachloro-2′,4′,5′,7′-tetraiodo-fluorescein]
- MIC (killing concentration) [3]: 3.13 to 12.5 µg/mL
- appearance of solution at acidic pH [4]: rapid clouding of the admixture and clumping
- concentration tolerated (Bacteroides fragilis): ≥ 100 µg/mL
- colonies counted (Dilution 5.8 × 10^11) ([5]; first column, PV-10 5.0 µg/mL): 0 (0 colony)
- CFU/mL (Dilution 5.8 × 10^11) ([5]; first column, PV-10 5.0 µg/mL): 0 (0 colony) CFU/mL
- colonies counted (Dilution 5.8 × 10^11) ([5]; first column, PV-10 10 µg/mL): 0 (0 colony)
- CFU/mL (Dilution 5.8 × 10^11) ([5]; first column, PV-10 10 µg/mL): 0 (0 colony) CFU/mL
- colonies counted (Dilution 5.8 × 10^11) ([5]; second column, PV-10 5.0 µg/mL): 35 colonies
- CFU/mL (Dilution 5.8 × 10^11) ([5]; second column, PV-10 5.0 µg/mL): 9.4 × 10^10 CFU/mL
- colonies counted (Dilution 5.8 × 10^11) ([5]; second column, PV-10 10 µg/mL): 17 colonies
- CFU/mL (Dilution 5.8 × 10^11) ([5]; second column, PV-10 10 µg/mL): 4.5 × 10^10 CFU/mL
- log reduction of viable bacteria in air-exposed biofilms ([5]; spray 5.0 or 10 µg/mL solution, 250 µL twice, fluorescent light 1 h, dilution of 5.8×10^9): 4 log
- time to kill (S.aureus BAA-44): ≤ 2 min
- bactericidal activity [6]: effectively killed
- MIC [7]: 0.01 to 0.1 µg/mL
- viable bacteria in biofilm ([8]; 50.0 µg/mL (2xMIC under dark)): significantly reduced the number of viable bacteria
- biofilm eradication, log reduction ([8]; 60.0 µg/mL (77×MIC), fluorescent light): > 5 log
- CFU counted in biofilm ([8]; 100 µg/mL, fluorescent light): No CFU were counted
- viable bacteria in biofilm ([8]; 1,000 µg/mL): No viable bacteria
- confluency lost (Vero cells; 100 µM (97.4 µg/mL), 4 h): ~50%
- state of the monolayer (Vero cells; 100 µM, 1 h exposure): intact
- confluence lost (Vero cells; 1 h): About 18%
- confluence lost (Vero cells; 4 h): over 80%
- time to complete loss of the cell viability (Vero cells; 300 µM): ≤ 2 h
- concentration tolerated by Vero cells (Vero cells; 1 h): 100 to 200 µM
- selectivity ratio at 1 h ([9]; for Gram-negatives): > 7.9
- selectivity ratio at 1 h ([9]; for Gram-positives): > 62.5
- loss of viability (a S.aureus strain): about 80%
- biofilm, log reduction of viable bacteria ([10]; 10.0 µg/mL): over 6 log
- CFU counted in biofilm ([10]; 30.0 µg/mL or higher): No CFU were counted
- MIC (Gram-negative bacteria): > 100 µg/mL
- killing concentration (MIC) (Mycobacterium spp.; dark conditions): 25000 to 50000 µg/mL
- MIC (Mycobacterium spp.; illuminated conditions, 5 Mycobacterium spp., entries 25-29): 12.5 to 25 µg/mL
- killing concentration (MIC) (Mycobacterium spp.; illumination conditions): 12500 to 25000 µg/mL
- MIC (killing concentration) (Enterococcus faecalis): 0.39 to 0.78 µg/mL
- MIC (killing concentration) [11]: 0.39 to 0.78 µg/mL
- MIC (killing concentration) (Staphylococcus aureus; 7 methicillin-resistant S.aureus (MRSA) strains, fluorescent or LED light): 0.78 to 3.1 µg/mL
- concentration required to kill >99% of bacteria (Staphylococcus aureus; MIC standard strain, illumination, entry 4): 1.6 µg/mL
- MIC (killing concentration) (Staphylococcus aureus; vancomycin-resistant S.aureus strains, either lighting condition): below 1.0 µg/mL
- MIC (Gram-positive bacteria; dark condition, all Gram-positive bacteria of entries 1-23): 25 to 100 µg/mL
- MIC (Gram-positive bacteria; under illumination conditions (fluorescent, LED), wide range of Gram-positive bacteria, entries 1-23 in Table 1): 0.2 to 3.1 µg/mL
- susceptibility to RB (Streptococcus pneumoniae): showed resistance
- IC50 (S.cerevisiae [12]): 1.6 µg/mL
- concentration not killing the yeast (S.cerevisiae [13]; dark condition): > 500 µg/mL
- MBC (to kill >99% of the yeast) (S.cerevisiae [13]; fluorescent light): 400 µg/mL
- time to kill ([14]; Gram-negative bacteria): 5 min
- time to kill ([14]; Gram-positive bacteria): 1 to 2 min
- log reduction ([14]; within 2 hours of contact, preliminary studies): 6 log
- MIC [15]: 50 µg/mL and > 100 µg/mL
- log reduction of CFU (S.aureus 6538™): 6 log
- toxicological effects [16]: does not have systemic toxicological effects, mutagenic potential, and female reproductive and development effects
- time to kill (S.aureus 71080 (VRS8)): ≤ 2 min
- susceptibility to RB (Streptococcus salivarius): susceptible
- time to kill (E.faecium NR-32065): ≤ 2 min
- time required for a 5-log reduction (B.cepacia UCB717; 2-times the MIC): 40 minutes
- log reduction of the bacteria (B.cepacia UCB717; 4-times the MIC, in 5 minutes, 2.9 × 10^8 CFU): > 5 log
- necrosis on the surface tissue ([17]; 200 µM, 1 h): Some necrosis
- necrosis of the stratum corneum cells ([17]; 10 and 100 µM, 1 h exposure): did not cause necrosis

Compound: CC(=O)NC[C@H]1CN(c2ccc(N3CCOCC3)c(F)c2)C(=O)O1 [linezolid, reference compound]
- biofilm eradication efficacy ([8]; linezolid at 600 µg/mL, compared with RB 30.0 µg/mL): same level of efficacy

Compound: capreomycin
- MIC (µg/mL) against M.smegmatis 607™ (wild-type) [1]: 3.13 µg/mL
- susceptibility of the RB-resistant strain to the drug ([2]; dark condition): susceptible
- MIC (µg/mL) against M.smegmatis 607™ (RB mutant) ([2]; dark condition): 3.13 µg/mL
